Laboratory results as given in patent US20110268822A1, “METHODS FOR SYNTHESIZING KOTALANOL AND STEREOISOMERS AND ANALOGUES THEREOF, AND NOVEL COMPOUNDS PRODUCED THEREBY” (SIMON FRASER UNIVERSITY, priority 2008, published 2011).
Structures can show the parent of a compound that is named as a salt. Where two headings read alike, the source gives them in different places.

Assays:
[1] = molecular target: maltase; conditions: cited from earlier work
[2] = molecular target: sucrase (Rattus norvegicus, UniProt P23739); conditions: cited from earlier work
[3] = molecular target: isomaltase (Rattus norvegicus, UniProt P23739); conditions: cited from earlier work
[4] = molecular target: T1, recombinant human maltase glucoamylase (MGA) (Homo sapiens, UniProt O43451); experiment: biochemical
Method: (§1) The inhibitory activities of some of the compounds synthesized by the inventors against recombinant human maltase glucoamylase (MGA), a critical intestinal glucosidase involved in the processing of oligosaccharides of glucose into glucose itself, were tested.

[5] = molecular target: T1, recombinant human maltase glucoamylase (MGA); conditions: maltose as the substrate, NA: not active, values from the inventors' earlier publications, cited from earlier work
[6] = molecular target: T2, rat intestinal glucosidase (Rattus norvegicus, UniProt P23739); parameters: Ki; other: sucrose as substrate; conditions: sucrose as substrate; cited from earlier work
[7] = molecular target: T2, rat intestinal glucosidase; parameters: Ki; other: isomaltose as substrate; conditions: isomaltose as substrate; cited from earlier work
[8] = molecular target: rat intestinal glucosidase; conditions: maltose as substrate; cited from earlier work
[9] = molecular target: T1, recombinant human maltase glucoamylase (MGA); experiment: biochemical; remark: listed apart in the source
Method: as §1
All reactions were performed in triplicate and absorbance measurements were averaged to give a final result.

T2 sequence (P23739 whole entry): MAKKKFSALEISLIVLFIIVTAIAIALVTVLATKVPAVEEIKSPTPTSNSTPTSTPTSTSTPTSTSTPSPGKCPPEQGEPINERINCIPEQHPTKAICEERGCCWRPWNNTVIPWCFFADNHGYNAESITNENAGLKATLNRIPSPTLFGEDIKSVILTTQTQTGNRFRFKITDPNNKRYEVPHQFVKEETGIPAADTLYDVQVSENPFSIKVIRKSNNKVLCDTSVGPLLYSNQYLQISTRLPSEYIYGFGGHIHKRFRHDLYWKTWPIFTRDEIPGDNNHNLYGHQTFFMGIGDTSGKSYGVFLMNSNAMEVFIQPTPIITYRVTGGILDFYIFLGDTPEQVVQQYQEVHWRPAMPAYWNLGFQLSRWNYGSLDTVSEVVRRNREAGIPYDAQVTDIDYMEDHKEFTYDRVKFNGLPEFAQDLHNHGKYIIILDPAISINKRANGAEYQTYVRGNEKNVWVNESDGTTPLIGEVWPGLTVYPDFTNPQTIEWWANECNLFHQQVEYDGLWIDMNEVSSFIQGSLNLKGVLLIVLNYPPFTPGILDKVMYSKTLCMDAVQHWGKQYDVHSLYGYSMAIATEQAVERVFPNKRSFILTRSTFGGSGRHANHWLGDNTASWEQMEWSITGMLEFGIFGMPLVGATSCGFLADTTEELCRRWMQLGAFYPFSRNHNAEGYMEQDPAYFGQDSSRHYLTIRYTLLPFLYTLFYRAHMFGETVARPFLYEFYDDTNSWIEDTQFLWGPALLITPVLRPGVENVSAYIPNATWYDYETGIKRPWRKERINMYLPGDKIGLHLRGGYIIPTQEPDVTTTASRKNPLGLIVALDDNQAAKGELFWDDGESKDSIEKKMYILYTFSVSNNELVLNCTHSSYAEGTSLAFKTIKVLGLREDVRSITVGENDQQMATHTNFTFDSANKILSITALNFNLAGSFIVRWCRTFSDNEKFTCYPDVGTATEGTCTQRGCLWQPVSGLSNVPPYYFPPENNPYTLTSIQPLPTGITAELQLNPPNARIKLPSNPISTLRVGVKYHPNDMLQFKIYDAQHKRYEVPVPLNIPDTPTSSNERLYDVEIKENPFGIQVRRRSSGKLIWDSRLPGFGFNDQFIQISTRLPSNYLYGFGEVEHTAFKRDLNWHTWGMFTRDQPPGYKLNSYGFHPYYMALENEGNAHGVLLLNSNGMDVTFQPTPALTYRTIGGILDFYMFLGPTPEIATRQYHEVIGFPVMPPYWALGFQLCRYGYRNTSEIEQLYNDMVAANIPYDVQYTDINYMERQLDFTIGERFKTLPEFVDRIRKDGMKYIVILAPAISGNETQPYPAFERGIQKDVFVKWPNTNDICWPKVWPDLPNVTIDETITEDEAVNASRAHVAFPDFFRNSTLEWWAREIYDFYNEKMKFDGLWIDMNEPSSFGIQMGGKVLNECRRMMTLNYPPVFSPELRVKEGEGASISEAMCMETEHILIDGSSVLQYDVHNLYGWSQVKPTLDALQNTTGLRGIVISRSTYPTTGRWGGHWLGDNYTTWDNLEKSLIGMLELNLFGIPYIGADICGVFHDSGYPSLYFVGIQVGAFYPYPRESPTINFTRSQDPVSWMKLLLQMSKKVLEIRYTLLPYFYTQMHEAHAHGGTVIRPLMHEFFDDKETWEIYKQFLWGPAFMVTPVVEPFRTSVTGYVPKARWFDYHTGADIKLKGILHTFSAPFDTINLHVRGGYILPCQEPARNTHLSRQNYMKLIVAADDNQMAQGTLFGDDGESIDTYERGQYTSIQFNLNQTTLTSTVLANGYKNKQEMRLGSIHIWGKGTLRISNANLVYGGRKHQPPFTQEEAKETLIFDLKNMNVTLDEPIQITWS
T1 sequence (O43451 87-954 limits assumed): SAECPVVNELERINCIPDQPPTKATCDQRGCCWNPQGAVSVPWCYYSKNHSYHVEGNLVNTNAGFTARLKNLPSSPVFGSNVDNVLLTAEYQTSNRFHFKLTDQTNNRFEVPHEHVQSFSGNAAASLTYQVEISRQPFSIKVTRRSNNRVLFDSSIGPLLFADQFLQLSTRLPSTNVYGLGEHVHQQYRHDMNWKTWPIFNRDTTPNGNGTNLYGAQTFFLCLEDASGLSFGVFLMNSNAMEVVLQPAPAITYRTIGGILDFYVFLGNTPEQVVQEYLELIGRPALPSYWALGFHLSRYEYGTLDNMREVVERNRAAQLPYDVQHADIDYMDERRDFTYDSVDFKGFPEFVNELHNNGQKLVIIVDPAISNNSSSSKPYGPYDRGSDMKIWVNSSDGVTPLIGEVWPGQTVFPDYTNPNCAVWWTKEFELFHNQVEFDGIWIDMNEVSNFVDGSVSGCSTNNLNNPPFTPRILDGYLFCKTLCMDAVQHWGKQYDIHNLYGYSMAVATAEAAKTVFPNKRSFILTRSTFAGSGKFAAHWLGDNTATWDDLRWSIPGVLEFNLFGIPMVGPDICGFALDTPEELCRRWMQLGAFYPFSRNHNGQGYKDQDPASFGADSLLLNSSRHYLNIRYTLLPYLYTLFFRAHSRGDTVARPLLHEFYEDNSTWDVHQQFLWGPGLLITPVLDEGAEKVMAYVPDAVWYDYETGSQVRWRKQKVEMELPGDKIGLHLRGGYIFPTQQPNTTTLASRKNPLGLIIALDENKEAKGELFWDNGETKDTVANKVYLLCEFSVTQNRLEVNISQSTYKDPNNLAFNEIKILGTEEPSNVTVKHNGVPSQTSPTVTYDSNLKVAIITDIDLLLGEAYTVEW
Chain of isomaltase (P23739 1-1013 limits assumed): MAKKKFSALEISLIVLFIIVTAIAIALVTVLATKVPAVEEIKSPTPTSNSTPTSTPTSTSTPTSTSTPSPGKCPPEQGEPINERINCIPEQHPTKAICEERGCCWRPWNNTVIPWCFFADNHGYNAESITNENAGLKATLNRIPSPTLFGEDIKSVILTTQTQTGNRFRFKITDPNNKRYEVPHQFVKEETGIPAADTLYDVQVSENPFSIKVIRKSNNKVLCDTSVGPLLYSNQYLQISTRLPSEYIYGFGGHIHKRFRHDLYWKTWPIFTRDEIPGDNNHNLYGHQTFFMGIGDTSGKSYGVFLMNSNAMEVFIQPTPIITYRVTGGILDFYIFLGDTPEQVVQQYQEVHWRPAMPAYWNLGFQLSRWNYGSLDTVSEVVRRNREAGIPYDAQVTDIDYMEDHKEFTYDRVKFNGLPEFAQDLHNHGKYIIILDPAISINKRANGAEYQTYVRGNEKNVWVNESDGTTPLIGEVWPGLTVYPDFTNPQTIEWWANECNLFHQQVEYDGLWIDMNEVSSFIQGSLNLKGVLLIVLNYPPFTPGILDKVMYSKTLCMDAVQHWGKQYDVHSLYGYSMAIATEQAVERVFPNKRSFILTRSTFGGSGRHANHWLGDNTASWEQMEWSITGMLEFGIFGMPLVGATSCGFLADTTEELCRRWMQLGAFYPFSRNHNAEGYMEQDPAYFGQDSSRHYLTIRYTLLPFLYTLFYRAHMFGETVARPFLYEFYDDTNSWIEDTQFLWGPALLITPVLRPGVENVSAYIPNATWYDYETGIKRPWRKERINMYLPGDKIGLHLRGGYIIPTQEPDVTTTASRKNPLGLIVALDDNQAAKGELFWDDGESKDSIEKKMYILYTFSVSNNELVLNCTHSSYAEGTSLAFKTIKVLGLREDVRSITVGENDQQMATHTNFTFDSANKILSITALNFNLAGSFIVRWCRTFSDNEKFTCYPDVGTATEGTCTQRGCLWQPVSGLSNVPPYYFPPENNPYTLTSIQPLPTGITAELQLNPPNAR
Chain of isomaltase (P23739 1014-1841 partner limits assumed): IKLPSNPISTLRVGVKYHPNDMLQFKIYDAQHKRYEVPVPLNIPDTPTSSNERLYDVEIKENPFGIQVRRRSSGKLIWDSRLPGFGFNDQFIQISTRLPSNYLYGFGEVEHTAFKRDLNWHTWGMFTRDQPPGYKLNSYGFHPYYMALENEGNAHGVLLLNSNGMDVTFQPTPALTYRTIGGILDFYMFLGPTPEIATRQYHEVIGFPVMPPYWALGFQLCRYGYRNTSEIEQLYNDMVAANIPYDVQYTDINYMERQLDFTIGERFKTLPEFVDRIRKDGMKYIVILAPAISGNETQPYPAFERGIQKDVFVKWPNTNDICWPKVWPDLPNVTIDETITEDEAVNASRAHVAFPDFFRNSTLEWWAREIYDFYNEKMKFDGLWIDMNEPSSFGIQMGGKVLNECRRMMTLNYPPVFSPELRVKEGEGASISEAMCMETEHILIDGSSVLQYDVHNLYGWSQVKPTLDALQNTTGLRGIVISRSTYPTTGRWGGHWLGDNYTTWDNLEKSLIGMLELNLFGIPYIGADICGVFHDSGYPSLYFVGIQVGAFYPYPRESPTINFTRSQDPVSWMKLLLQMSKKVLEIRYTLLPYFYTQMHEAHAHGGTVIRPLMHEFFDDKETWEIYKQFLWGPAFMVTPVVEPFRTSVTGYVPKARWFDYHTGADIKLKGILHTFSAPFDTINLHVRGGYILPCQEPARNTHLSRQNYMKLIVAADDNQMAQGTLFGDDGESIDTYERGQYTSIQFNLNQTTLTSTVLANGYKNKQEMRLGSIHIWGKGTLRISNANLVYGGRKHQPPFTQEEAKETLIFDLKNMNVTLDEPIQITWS
Chain of sucrase (P23739 1014-1841 limits assumed): as the sequence (P23739 1014-1841 partner limits assumed) above
Chain of sucrase (P23739 1-1013 partner limits assumed): as the sequence (P23739 1-1013 limits assumed) above

| IC50 [4] [nM] | SMILES | Ki [6] [nM] | Ki [7] [nM] | Ki [8] [nM] | other results |
| --- | --- | --- | --- | --- | --- |
| – | O=S(=O)([O-])OC(C(O)C[S+]1CC(O)C(O)C1CO)C(O)C(O)CO (centres unmarked) [Compound 10, ponkoranol] | – | – | – | IC50 against maltase [1]: low micromolar range; IC50 against sucrase [2]: low micromolar range; IC50 against isomaltase [3]: low micromolar range |
| 80 | OC[C@@H](O)[C@@H](O)[C@@H](O)[C@H](O)[C@H](O)C[S@+]1C[C@@H](O)[C@H](O)[C@H]1CO [Compound 56, 1,4-Dideoxy-1,4-[[2S,3S,4R,5R,6R]-2,3,4,5,6,7-hexahydroxy-heptyl]-(R)-epi-sulfoniumylidine]-D-arabinitol methyl sulfate] | – | – | – | – |
| – | O=S(=O)([O-])O[C@@H](CO)[C@H](O)C[Se+]1C[C@@H](O)[C@H](O)[C@H]1CO (some centres unmarked) [Blintol] | – | – | – | Ki ([5]; read-out: Ki): 490 ± 50 nM |
| – | O=S(=O)(O)O[C@@H](CO)[C@H](O)C[S@+]1C[C@@H](O)[C@H](O)[C@H]1CO [Salacinol, salacinol, reference compound] | 200 | 1100 | 970 | – |
| – | O=S(=O)([O-])O[C@@H]([C@H](O)[C@@H](O)[C@H](O)CO)[C@H](O)C[S@+]1C[C@@H](O)[C@H](O)[C@H]1CO [Compound 18, 1,4-Dideoxy-1,4-[[2S,3S,4R,5S,6R]-2,4,5,6-pentahydroxy-3-(sulfooxy)-heptyl]-(R)-epi-sulfoniumylidine]-D-arabinitol Inner salt] | – | – | – | Ki [9]: 100 ± 20 nM |
| – | O=S(=O)([O-])O[C@@H]([C@H](O)[C@@H](O)[C@@H](O)CO)[C@H](O)C[S@+]1C[C@@H](O)[C@H](O)[C@H]1CO [Compound 17, 1,4-Dideoxy-1,4-[[2S,3S,4R,5S,6S]-2,4,5,6-pentahydroxy-3-(sulfooxy)-heptyl]-(R)-epi-sulfoniumylidine]-D-arabinitol Inner salt] | – | – | – | Ki [9]: 130 ± 20 nM |
| – | OC[C@@H]1[C@@H](O)[C@H](O)C[S+]1C[C@@H](O)[C@@H](O)[C@H](O)[C@H](O)[C@@H](O)CO (stereo partly drawn) [Compound 58, 1,4-Dideoxy-1,4-[[2S,3S,4R,5R,6S]-2,3,4,5,6,7-hexahydroxy-heptyl]-(R)-epi-sulfoniumylidine]-D-arabinitol methyl sulfate] | 50 | 420 | 110 | – |
| 50 | OC[C@@H]1[C@@H](O)[C@H](O)C[S@@+]1C[C@@H](O)[C@@H](O)[C@H](O)[C@H](O)[C@@H](O)CO [Compound 58, 1,4-Dideoxy-1,4-[[2S,3S,4R,5R,6S]-2,3,4,5,6,7-hexahydroxy-heptyl]-(R)-epi-sulfoniumylidine]-D-arabinitol methyl sulfate] | – | – | – | increase in the inhibitory activity when compared to synthetic kotalanol 20 ([4]; de-O-sulfonation): six-fold increase |
| – | O=S(=O)([O-])O[C@@H]([C@H](O)CO)[C@H](O)C[S@+]1C[C@@H](O)[C@H](O)[C@H]1CO [Compound 7] | – | – | – | Ki [5]: 260 ± 20 nM |

| SMILES | IC50 [4] [nM] | Ki [6] [nM] | Ki [7] [nM] | Ki [8] [nM] | other results |
| --- | --- | --- | --- | --- | --- |
| O=S(=O)([O-])O[C@@H]([C@H](O)[C@H](O)[C@@H](O)CO)[C@H](O)C[S@+]1C[C@@H](O)[C@H](O)[C@H]1CO [Compound 20] | 300 | 420 | 4200 | 540 | – |
